Test results: paper PMC6132687, “Stem cells are the most sensitive screening tool to identify toxicity of GATA4-targeted novel small-molecule compounds” (Archives of Toxicology, 2018)

Tests used:
hiPSCs = test: High-content analysis of cell viability (MitoTracker) in hiPSCs; assay type: cell-based, human; details: 24 h
Method: To study mitochondrial function using high-content analysis, the cells were plated and treated as in proliferation studies, except that MitoTracker Orange CMTMRos solution (400 nM) was added to the cells for the last 30 min at 37 °C. The accumulation of the MitoTracker probe used is dependent upon mitochondrial membrane potential allowing selective staining of active mitochondria. Following fixation and permeabilization, hiPSC-CMs were in addition stained with anti-α-actinin (Alexa Fluor 488) and DAPI. Cells were identified and hiPSC-CMs discriminated from non-myocytes as described above. MitoTracker intensity corresponding to active mitochondria was analysed in the perinuclear area defined by a 3-pixel ring or a 5-pixel ring around the nucleus in hiPSCs and hiPSC-CMs, respectively. The fluorescence intensity threshold was set manually in each experiment based on the assumption that 2% of control hiPSC-CMs and 5% of control hiPSCs were MitoTracker negative.

[1] = system: GATA4–NKX2-5 transcriptional synergy; parameters: method as in Välimäki et al. [2017]; details: ref Välimäki et al. [2017]; cited from earlier work
[2] = system: stretch-induced cardiomyocyte hypertrophy; parameters: method as in Välimäki et al. [2017]; details: ref Välimäki et al. [2017]; cited from earlier work
[3] = system: extracellular signal-regulated kinase 1/2 signalling; parameters: method as in Ferreira et al. [2017]; details: systemic administration in heart-targeted nanoparticles; ref Ferreira et al. [2017]; cited from earlier work
cardiac function = system: cardiac function; parameters: method as in Kinnunen et al. [2018]; details: after myocardial infarction or angiotensin II-induced cardiac hypertrophy; ref Kinnunen et al. [2018]; cited from earlier work
hiPSC-CMs = test: MTT assay in hiPSC-CMs; assay type: cell-based, human; details: 24 h
Method: The cells were exposed to the test compounds for 24 h and cytotoxicity was quantified with MTT and LDH assays as described previously (Talman et al. [2011]). For the determination of cell membrane integrity, 50 µl of medium from each well was transferred onto a new 96-well plate followed by addition of 50 µl of substrate solution containing 1.3 mM β-nicotinamide adenine dinucleotide, 660 µM iodonitrotetrazolium, 54 mM L(+)-lactic acid, 280 µM phenazine methosulphate and 0.2 M Tris–HCl (pH 8.0). After a 30-min incubation, the reaction was stopped by adding 50 µl of 1 M acetic acid to each well and absorbance was measured at 490 nm using Victor2 plate reader (PerkinElmer, Turku, Finland). Spontaneous LDH release was measured from untreated cells, maximal LDH release from cells lysed with 0.9% Triton X-100 and background absorbance was measured from wells without cells. After background extraction, cytotoxicity was calculated as follows: cytotoxicity (%) = [(sample − spontaneous LDH release)/(maximal LDH release − spontaneous LDH release)] × 100. For quantification of metabolic activity, 3-(4,5-dimethylthiazol-2-yl)-2,5-diphenyltetrazolium bromide (MTT) was added to the cells at a final concentration of 0.5 mg/ml followed by 2 h incubation in cell culture conditions. […] Absorbance was measured at 550 nm and absorbance at 650 nm was subtracted as background. […]

| Structure (SMILES) | average MitoTracker intensity in the perinuclear area (hiPSCs; 10 µM) | increase in the percentage of MitoTracker negative cells as compared to DMSO (hiPSCs; 10 µM) [fold] | reduction of hiPSC cell numbers (hiPSCs; 10 µM) [%] | GATA4-induced synergistic transactivation of a promoter sequence containing NKX2-5 binding sites [1] | stretch-induced cardiomyocyte hypertrophy [2] | pro-hypertrophic ERK1/2 signalling in the hypoxic endocardial layer of the left ventricle [3] | cardiac function (cardiac function) | increase in hiPSC-CM metabolic activity (hiPSC-CMs) [%] | effect on MitoTracker staining (hiPSCs) |
| --- | --- | --- | --- | --- | --- | --- | --- | --- | --- |
| CCN(CC)c1ccc(NC(=O)c2c(-c3ccccc3)noc2C)cc1 [3i-1000] | reduced substantially | 5.7 | 98 | inhibits | attenuates | inhibits | improves cardiac function | – | – |
| CCN(CC)c1ccc(NC(=O)c2c(C)noc2-c2cc(C)on2)cc1 [3i-1047] | – | – | – | – | – | – | – | 51 | did not affect MitoTracker staining |
